Experimental data: BindingDB's records for doi:10.1021/jm200866y (Merck Serono, 2011)

Assay: Antagonist activity at CRTH2 in human blood cells assessed as inhibition of PGD2-induced eosinophil cell shape change after 10 mins by flow cytometry

For `O=C(O)COc1ccc(Cl)cc1C#Cc1cccc(Cl)c1`, which IC50 is on record?
Its IC50 is 6900 nM.

With `O=C(O)COc1ccc(Cl)cc1C#Cc1ccc(CO)cc1F` as the compound, how does the IC50 read?
The IC50 was 680 nM.

Which IC50 does the source give for `O=C(O)COc1ccc(Cl)cc1C#Cc1cccc(S(=O)(=O)CCO)c1` here?
The IC50 was 990 nM.

For `Cc1ccc(S(C)(=O)=O)cc1C#Cc1cc(Cl)ccc1OCC(=O)O`, which IC50 is on record?
Its IC50 is 64 nM.

Which IC50 does the source give for `CS(=O)(=O)c1ccc(F)c(C#Cc2cc(Cl)ccc2OCC(=O)O)c1` here?
Its IC50 is 95 nM.

With `CS(=O)(=O)c1ccc(Cl)c(C#Cc2cc(Cl)ccc2OCC(=O)O)c1` as the compound, how does the IC50 read?
The IC50 was 26 nM.

With `CCCc1ccc(S(C)(=O)=O)cc1C#Cc1cc(Cl)ccc1OCC(=O)O` as the compound, how does the IC50 read?
The IC50 was 1200 nM.

For `CC(C)c1ccc(S(C)(=O)=O)cc1C#Cc1cc(Cl)ccc1OCC(=O)O`, which IC50 is on record?
Its IC50 is 360 nM.

Which IC50 does the source give for `CCCS(=O)(=O)c1ccc(C)c(C#Cc2cc(Cl)ccc2OCC(=O)O)c1` here?
Its IC50 is 81 nM.

With `Cc1ccc(S(=O)(=O)C(C)C)cc1C#Cc1cc(Cl)ccc1OCC(=O)O` as the compound, how does the IC50 read?
Its IC50 is 190 nM.

With `Cc1ccc(S(=O)(=O)CC(C)C)cc1C#Cc1cc(Cl)ccc1OCC(=O)O` as the compound, how does the IC50 read?
The IC50 was 120 nM.

For `Cc1ccc(S(=O)(=O)c2ccccc2)cc1C#Cc1cc(Cl)ccc1OCC(=O)O`, which IC50 is on record?
Its IC50 is 260 nM.

Which IC50 does the source give for `Cc1ccc(S(=O)(=O)CCCO)cc1C#Cc1cc(Cl)ccc1OCC(=O)O` here?
The IC50 was 310 nM.

For `CCCS(=O)(=O)c1ccc(F)c(C#Cc2cc(Cl)ccc2OCC(=O)O)c1`, which IC50 is on record?
The IC50 was 23 nM.

For `CC(C)S(=O)(=O)c1ccc(F)c(C#Cc2cc(Cl)ccc2OCC(=O)O)c1`, which IC50 is on record?
Its IC50 is 91 nM.

Which IC50 does the source give for `CCCS(=O)(=O)c1ccc(Cl)c(C#Cc2cc(Cl)ccc2OCC(=O)O)c1` here?
Its IC50 is 23 nM.

For `CC(C)S(=O)(=O)c1ccc(Cl)c(C#Cc2cc(Cl)ccc2OCC(=O)O)c1`, which IC50 is on record?
The IC50 was 67 nM.

Which IC50 does the source give for `Cc1ccc(S(=O)(=O)N(C)C)cc1C#Cc1cc(Cl)ccc1OCC(=O)O` here?
The IC50 was 23 nM.

With `CCNS(=O)(=O)c1ccc(C)c(C#Cc2cc(Cl)ccc2OCC(=O)O)c1` as the compound, how does the IC50 read?
Its IC50 is 40 nM.

With `Cc1ccc(S(=O)(=O)NC(C)C)cc1C#Cc1cc(Cl)ccc1OCC(=O)O` as the compound, how does the IC50 read?
Its IC50 is 250 nM.

Which IC50 does the source give for `Cc1ccc(S(=O)(=O)N(C)C(C)C)cc1C#Cc1cc(Cl)ccc1OCC(=O)O` here?
Its IC50 is 140 nM.

Which IC50 does the source give for `Cc1ccc(S(=O)(=O)N2CCCCC2C)cc1C#Cc1cc(Cl)ccc1OCC(=O)O` (centres undefined) here?
Its IC50 is 310 nM.

Which IC50 does the source give for `COCCN(C)S(=O)(=O)c1ccc(C)c(C#Cc2cc(Cl)ccc2OCC(=O)O)c1` here?
Its IC50 is 77 nM.

Which IC50 does the source give for `COCCNS(=O)(=O)c1ccc(C)c(C#Cc2cc(Cl)ccc2OCC(=O)O)c1` here?
Its IC50 is 88 nM.

With `CN(C)S(=O)(=O)c1cncc(C#Cc2cc(Cl)ccc2OCC(=O)O)c1` as the compound, how does the IC50 read?
The IC50 was 289 nM.

With `O=C(O)COc1ccc(Cl)cc1C#Cc1ccc2c(c1)S(=O)(=O)c1ccccc1-2` as the compound, how does the IC50 read?
The IC50 was 4300 nM.

For `CCCS(=O)(=O)c1cccc(C#Cc2cc(Cl)ccc2OCC(=O)O)c1`, which IC50 is on record?
Its IC50 is 750 nM.

With `CCN(Cc1cc(-c2ccc(OC)cn2)ccc1-c1cc(CC(=O)O)ccc1OC)C(=O)C1CC1` as the compound, how does the IC50 read?
Its IC50 is 3 nM.

Assay: Inhibition of CRTH2-mediated chemotaxis of human eosinophils towards PGD2 after 30 mins by fluorescence counter

Which IC50 does the source give for `O=C(O)COc1ccc(Cl)cc1C#Cc1ccccc1Cl` here?
The IC50 was 123 nM.
